Numbering of substitutions follows the chain as printed. Structures can show the parent of a compound that is named as a salt.

The values that follow come from publication PMC9635925, “Biological screening of a unique drug library targeting MRGPRX2” (Frontiers in Immunology, 2022).

Experiment [1] addresses T1, MRGPRX2-WT (wild-type MRGPRX2 receptor) (Homo sapiens, UniProt Q96LB1).
T1 construct: expressed in transfected cells
T1 sequence (Q96LB1 1-330): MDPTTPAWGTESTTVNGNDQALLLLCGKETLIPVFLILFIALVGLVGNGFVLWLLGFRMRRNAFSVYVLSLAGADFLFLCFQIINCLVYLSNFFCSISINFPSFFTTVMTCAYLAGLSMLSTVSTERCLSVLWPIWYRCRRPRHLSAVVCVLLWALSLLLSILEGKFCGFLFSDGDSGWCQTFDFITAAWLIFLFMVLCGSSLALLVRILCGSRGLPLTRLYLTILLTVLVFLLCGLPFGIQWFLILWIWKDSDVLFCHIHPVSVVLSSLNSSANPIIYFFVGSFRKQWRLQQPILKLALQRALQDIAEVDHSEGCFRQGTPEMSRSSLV
Put plainly: Primary HTS, Ca2+ mobilization (fluorescence ratio, B-score) in HEK293-Gα15 cells stably expressing wild-type MRGPRX2. In kind it is cell-based. The note with it: 10 μM compound.

Experiment [2] concerns the target T2, MRGPRX2-MUT (MRGPRX2 N62S mutation) (Homo sapiens, UniProt Q96LB1, N62S).
T2 construct: expressed in transfected cells
T2 sequence (Q96LB1 1-330 N62S): T1 sequence (Q96LB1 1-330) with N62S
The experiment is described as follows: Primary HTS, Ca2+ mobilization (fluorescence ratio, B-score) in HEK293-Gα15 cells stably expressing the MRGPRX2 N62S mutation. In kind it is cell-based. To be noted: for B-scores (MUT): 10 μM compound, MRGPRX2-MUT (N62S) cells; for Change of B-scores (%): 10 μM.

Setting [3] is: Supplementary Table 2, listed as Isoprenaline.
[4] abbreviates: MRGPRX2-MUT in comparison to MRGPRX2-WT cells, Supplementary Table 1.
[5] abbreviates: MRGPRX2-MUT in comparison to MRGPRX2-WT cells, Table 1.
Setting [6] is: MRGPRX2-MUT versus MRGPRX2-WT cells, Supplementary Table 2.

`CC(C)NCC(O)c1ccc(O)c(O)c1` (stereo not drawn) [Isoproterenol]: the “B-scores (WT)” value in experiment [1] (Supplementary Table 1) and in experiment [1] (setting [3]) was 19.12 each time. Also, the “B-scores (MUT)” value in experiment [2] (Supplementary Table 1) and in experiment [2] (setting [3]) was 6.75 throughout. In addition, the “Change of B-scores (%)” value in experiment [2] (setting [4]) is -64.69%; in experiment [2] (MRGPRX2-MUT versus MRGPRX2-WT cells, Supplementary Table 2, listed as Isoprenaline) it was -64.69%.
With `CN1CCC(=C2c3ccccc3CC(=O)c3sccc32)CC1` [Ketotifen Fumarate], the “B-scores (WT)” value in experiment [1] (Supplementary Table 1) and in experiment [1] (Table 1) was 23.14 throughout. Moreover, the “B-scores (MUT)” value in experiment [2] (Supplementary Table 1) and in experiment [2] (Table 1) was 0.81 in each case. For the same molecule, the “Change of B-scores (%)” value in experiment [2] (setting [4]) and in experiment [2] (setting [5]) was -96.52% in each case.
With `CN1CCC(=C2c3ccccc3CC(=O)c3sccc32)CC1` [Ketotifen], the “B-scores (WT)” value in experiment [1] (Supplementary Table 1) and in experiment [1] (Table 1) was 20.12 in each case. In addition, the “B-scores (MUT)” value in experiment [2] (Supplementary Table 1) and in experiment [2] (Table 1) was 1.38 each time. Also, the “Change of B-scores (%)” value in experiment [2] (setting [4]) and in experiment [2] (setting [5]) was -93.13% each time.
With `CC(C)(C)NC[C@H](O)c1ccc(O)c(CO)c1` [Levalbuterol], the “B-scores (WT)” value in experiment [1] (Supplementary Table 2) is listed as 12.18. Also, the “B-scores (MUT)” value in experiment [2] (Supplementary Table 2) worked out at 1.63. Moreover, the “Change of B-scores (%)” value in experiment [2] (setting [6]) was -86.62%.
As for `C[C@H]1COc2c(N3CCN(C)CC3)c(F)cc3c(=O)c(C(=O)O)cn1c23` [Levofloxacin], the “B-scores (WT)” value in experiment [1] (Supplementary Table 1) and in experiment [1] (Table 1) was 39.73 each time. Moreover, the “B-scores (MUT)” value is recorded as 0.74 in experiment [2] (Supplementary Table 1) and -0.74 in experiment [2] (Table 1). The “Change of B-scores (%)” value in experiment [2] (setting [4]) and in experiment [2] (setting [5]) was -101.85% in each case.
On to `CCOC(=O)N1CCC(=C2c3ccc(Cl)cc3CCc3cccnc32)CC1` [Loratadine], for which the “B-scores (WT)” value in experiment [1] (Supplementary Table 1) and in experiment [1] (Table 1) was 21.95 each time. Further, the “B-scores (MUT)” value in experiment [2] (Table 1) was -3.30. Moreover, the “Change of B-scores (%)” value in experiment [2] (setting [4]) and in experiment [2] (setting [5]) was -115.04% in each case.
Consider `Cc1ccc(NC(=O)c2ccc(CN3CCN(C)CC3)cc2)cc1Nc1nc(-c2cccnc2)cs1` [Masitinib], for which the “B-scores (WT)” value in experiment [1] (Supplementary Table 1), in experiment [1] (Supplementary Table 2) and in experiment [1] (Table 1) was 27.71 each time. Further, the “B-scores (MUT)” value in experiment [2] (Supplementary Table 1), in experiment [2] (Supplementary Table 2) and in experiment [2] (Table 1) was 3.82 throughout. For the same molecule, the results for the “Change of B-scores (%)” value in experiment [2] (setting [4]), in experiment [2] (setting [5]) and in experiment [2] (setting [6]) were -86.20%, -86.20% and -86.2%, respectively.
With `CN1CCc2c(c3ccccc3n2Cc2ccccc2)C1.CN1CCc2c(c3ccccc3n2Cc2ccccc2)C1.O=S(=O)(O)c1cccc2c(S(=O)(=O)O)cccc12` [Mebhydrolin Naphthalenesulfonate], the “B-scores (WT)” value in experiment [1] (Supplementary Table 1) and in experiment [1] (Table 1) was 25.34 throughout. Further, the “B-scores (MUT)” value in experiment [2] (Supplementary Table 1) and in experiment [2] (Table 1) was 1.93 throughout. In addition, the “Change of B-scores (%)” value in experiment [2] (setting [4]) and in experiment [2] (setting [5]) was -92.39% in each case.
On to `CC12CC3CC(C)(C1)CC(N)(C3)C2` [Memantine Hydrochloride], for which the “B-scores (WT)” value in experiment [1] (Supplementary Table 1) is listed as 26.34. Besides, the “Change of B-scores (%)” value in experiment [2] (setting [4]) is recorded as -99.82%.
Take `CC(C)NCC(O)c1cc(O)cc(O)c1` (stereo not drawn) [Metaproterenol]: the “B-scores (WT)” value in experiment [1] (Supplementary Table 1) and in experiment [1] (Supplementary Table 2) was 20.54 in each case. Further, the “B-scores (MUT)” value in experiment [2] (Supplementary Table 1) and in experiment [2] (Supplementary Table 2) was 2.41 in each case. For the same molecule, the “Change of B-scores (%)” value in experiment [2] (setting [4]) and in experiment [2] (setting [6]) was -88.28% each time.
With `CC(=O)OC(C)C[N+](C)(C)C` (stereo not drawn) [Methacholine Chloride], the “B-scores (WT)” value in experiment [1] (Supplementary Table 1) is reported as 26.04. Besides, the “B-scores (MUT)” value in experiment [2] (Supplementary Table 1) is on record as 37.31. In addition, the “Change of B-scores (%)” value in experiment [2] (setting [4]) is 43.29%.
On to `CC(=O)Oc1cc(C(C)C)c(OCCN(C)C)cc1C` [Moxisylyte Hydrochloride], for which the “B-scores (WT)” value in experiment [1] (Supplementary Table 1) is on record as 23.69. Further, in experiment [2] (Supplementary Table 1), the “B-scores (MUT)” value is recorded as 1.32. Besides, the “Change of B-scores (%)” value in experiment [2] (setting [4]) was -94.42%.
For the molecule `NC[C@H](O)c1ccc(O)c(O)c1` [Norepinephrine], the “B-scores (WT)” value in experiment [1] (Supplementary Table 1) is 28.83. Further, the “B-scores (MUT)” value in experiment [2] (Supplementary Table 1) turned out to be 7.54. Further, the “Change of B-scores (%)” value in experiment [2] (setting [4]) is listed as -73.85%.
On to `CCn1cc(C(=O)O)c(=O)c2cc(F)c(N3CCNCC3)cc21` [Norfloxacin], for which the “B-scores (WT)” value in experiment [1] (Supplementary Table 1), in experiment [1] (Supplementary Table 2) and in experiment [1] (Table 1) was 28.07 in each case. Further, the “B-scores (MUT)” value in experiment [2] (Supplementary Table 2) and in experiment [2] (Table 1) was 0.05 in each case. Also, the “Change of B-scores (%)” value in experiment [2] (setting [4]), in experiment [2] (setting [5]) and in experiment [2] (setting [6]) was -99.81% throughout.
As to `CNCCC=C1c2ccccc2CCc2ccccc21` [Nortriptyline Hydrochloride], the “B-scores (WT)” value in experiment [1] (Supplementary Table 2) is 16.29. Also, the “B-scores (MUT)” value in experiment [2] (Supplementary Table 2) is 2.78. Also, the “Change of B-scores (%)” value in experiment [2] (setting [6]) is reported as -82.96%.
Consider `NCCC(O)(P(=O)([O-])O)P(=O)([O-])O.[Na+].[Na+]` [Pamidronate disodium], for which the “B-scores (WT)” value in experiment [1] (Supplementary Table 1) is given as 30.08. For the same molecule, the “B-scores (MUT)” value in experiment [2] (Supplementary Table 1) is 18.72. For the same molecule, the “Change of B-scores (%)” value in experiment [2] (setting [4]) is -37.79%.
Turning to `CCn1cc(C(=O)O)c(=O)c2cc(F)c(N3CCN(C)CC3)cc21.CS(=O)(=O)O` [Pefloxacine Mesylate], the “B-scores (WT)” value in experiment [1] (Supplementary Table 2) is listed as 7.86. In addition, the “B-scores (MUT)” value in experiment [2] (Supplementary Table 2) is given as -0.79. Also, the “Change of B-scores (%)” value in experiment [2] (setting [6]) is on record as -110.02%.
On to `N=C(N)c1ccc(OCCCCCOc2ccc(C(=N)N)cc2)cc1` [Pentamidine Isethionate], for which the “B-scores (WT)” value in experiment [1] (Supplementary Table 1) turned out to be 37.48. Further, in experiment [2] (Supplementary Table 1), the “B-scores (MUT)” value came to 0.43. Besides, the “Change of B-scores (%)” value in experiment [2] (setting [4]) was -98.84%.
As to `N=C(N)c1ccc(OCCCCCOc2ccc(C(=N)N)cc2)cc1` [Pentamidine], the “B-scores (WT)” value in experiment [1] (Supplementary Table 1) turned out to be 24.12. Besides, the “B-scores (MUT)” value in experiment [2] (Supplementary Table 1) is listed as 8.70. The “Change of B-scores (%)” value in experiment [2] (setting [4]) is given as -63.92%.
On the same counts, the results for `CN1CCC(=C2c3ccccc3CCc3sccc32)CC1.O=C(O)CC(O)C(=O)O` [Pizotyline Malate] are 39.73, 1.29 and -96.75%.
For the molecule `CN(C)CCCN1c2ccccc2Sc2ccccc21` [Promazine Hydrochloride], the “B-scores (WT)” value in experiment [1] (Supplementary Table 1), in experiment [1] (Supplementary Table 2) and in experiment [1] (Table 1) was 23.47 each time. Besides, the “B-scores (MUT)” value in experiment [2] (Supplementary Table 1), in experiment [2] (Supplementary Table 2) and in experiment [2] (Table 1) was 8.13 each time. In addition, the “Change of B-scores (%)” value in experiment [2] (setting [4]), in experiment [2] (setting [5]) and in experiment [2] (setting [6]) was -65.37% throughout.
Regarding `CNCCCC1c2ccccc2C=Cc2ccccc21` [Protriptyline Hydrochloride], the “B-scores (WT)” value in experiment [1] (Supplementary Table 1) and in experiment [1] (Table 1) was 24.43 each time. The “B-scores (MUT)” value in experiment [2] (Supplementary Table 1) and in experiment [2] (Table 1) was 3.59 each time. In addition, the “Change of B-scores (%)” value in experiment [2] (setting [4]) and in experiment [2] (setting [5]) was -85.30% throughout.
For the molecule `COc1ccc(CN(CCN(C)C)c2ccccn2)cc1` [Pyrilamine], the “B-scores (WT)” value in experiment [1] (Supplementary Table 2) is reported as 13.36. In experiment [2] (Supplementary Table 2), the “B-scores (MUT)” value was found to be 0.23. Further, the “Change of B-scores (%)” value in experiment [2] (setting [6]) is given as -98.24%.
